Reference: patent publication US7273723B2, “Antibiotic-based gene regulation system” (priority 2001, dated 2007)

Assays:
[1] = test system: erythromycin-dependent transactivators ET (MphR(A) fusions) / PETR promoters; experiment: SEAP reporter assay, CHO-K1 transiently cotransfected with ET transactivator and PETR-SEAP plasmids; assay type: cell-based, Chinese hamster
Procedure: Chinese hamster ovary cells (CHO-K1, ATCC: CCL 61), and HeLa cells (ATCC: CRL-7923) as well as stable cell lines derived thereof were cultured as described before (Fussenegger et al., 1998, Nat. Biotechnol. 16,468-472) in the presence of appropriate antibiotics: G418 400 μg/ml; zeocin 100 μg/ml. Optimized CaPO4 protocols were used for high efficiency transient transfection of all cell lines (Fussenegger et al., 1998. Nat. Biotechnol. 16: 468-472). Transiently transfected cells were routinely analyzed after 48 h for CFP or SEAP expression using fluorescence microscopy and p-nitrophenolphosphate-based light absorbance timecourse, respectively, as described before (Fussenegger et al., 1998, Nat. Biotechnol. 16, 468-472; Berger et al., 1988, Gene 66, 1-10 b). For construction of stable CHO-ET1 and CHO-Triplet42 cell lines, CHO-Ki and CHO-TWIN1108 (Disclosed in PCT application no. 00/65080) were cotransfected with pWW35 and pZeoSV2 (invitrogen). CHO-ET11-SEAP was constructed by cotransfection of pWW38 and pSV2neo (Clontech) into CHO-ET11. The mixed populations were cloned using FACS-mediated single-cell-sorting (FACStar^Plus; Beckton Dickinson). For assessment of dose-response characteristics of PETR3-regulated gene expression, CHO-ET11-SEAP were cultured at cell densities of 50,000/ml for 48 h at various EM concentrations.
Other antibiotics were eluted from antibiotic test discs (Mast Diagnostica GmbH, Reinfeld, Germany, or bioMérieux, Geneva Switzerland) in cell culture medium at 37° C. for 12 h to reach a final concentration of 30 μg/ml. All macrolide antibiotics were used at a 2 μg/ml concentration unless indicated otherwise.
In order to analyze the potential of the MphR(A)/ETR system for the design of a novel mammalian gene regulation system, we adapted these regulatory elements for use in a eukaryotic context by construction of a set of two chimeric determinants: the EM-inhibited transactivators (ET, MphR(A) fused to different eukaryotic transactivation domains: ET1: MphR(A)-VP16; ET2: MphR(A)-p65; ET3: MphR(A)-E2F4) and the EM-responsive promoter (PETR3) (ETR fused to the minimal cytomegalovirus PhCMVmin; Gossen et al., (1992). Proc. Natl. Acad. Sci. USA 89, 5547-5551). […] CFP-expression could only be detected when pWW44 was cotransfected with an ET1-encoding pWW35, showing that the chimeric ET1 protein functions as a transactivator for PETR3 in mammalian cells.
To analyze the regulatory performance of promoters PETR1 and PETR4, an ET1-encoding vector (pWW35) was cotransfected with pWW36 and pWW39 into CHO-K1 cells. […] The results are shown in Table 6 together with the values of an ET1/PETR3 transfection (Table 5) for better comparison.

[2] = test system: ET1 / plant promoters PETRp1, PETRp8; experiment: EpOFF erythromycin-repressible GUS expression in Nicotiana tabacum SR1 suspension cells; assay type: cell-based; settings: erythromycin 250 μg/ml, 48 hours
Procedure: The transformation protocol of SR1 cells was adapted from Wu and Feng (1999, Plant Cell Reports 18: 381-386). In brief, 200 mg of exponentially growing SR1 cells were harvested by centrifugation. The cells were incubated for 15 min. in 2% DMSO and washed twice in fresh medium. Cells were subsequently resuspended in electroporation buffer (5 mM CaCl2; 10 mM NaCl2; 0.4 M sucrose; 8.7% glycerol; 4 mM ascorbate; 10 mM HEPES; pH 6.8) and mixed with desired DNA at a concentration of 0.2 μg/μl. The cell-DNA mixture was incubated for 10 min. on ice electroporated at 700 V/cm and 980 μF using a BioRad Gene Pulser and appropriate cuvettes. […]
Transformed SR1 cells were incubated at 25° C. for 48 h while rocking at 110 rpm. […] Protein concentration of plant extracts was determined using a Bradford assay (Bradford, 1976, Anal. Biochem. 72: 248-254). […] The fluorescence time course was determined using typical 365 nm/455 nm excitation/emission profiles and a Shimadzu RF-5001 PC spectrofluorophotometer.
pBP6 (PCaMV35S-ET1-pAocs, FIG. 9a) was cotransformed either with pBP 18 (PETRp1-GUS-pA35S; FIG. 9b) or pBP36 (PETRp8-GUS-pA35S; FIG. 9b) by electroporation into the Nicotiana tabacum cell line SR1. GUS activity was assessed after 48 hours using a fluorescence-based detection technology.

[3] = test system: PSV40 or PhCMV-driven SEAP expression constructs; experiment: SEAP expression from constitutive PSV40 or PhCMV-driven constructs with erythromycin; assay type: cell-based; settings: data not shown

Structure (SMILES): CC[C@H]1OC(=O)[C@H](C)[C@@H](O[C@H]2C[C@@](C)(OC)[C@@H](O)[C@H](C)O2)[C@H](C)[C@@H](O[C@@H]2O[C@H](C)C[C@H](N(C)C)[C@H]2O)[C@](C)(O)C[C@@H](C)C(=O)[C@H](C)[C@@H](O)[C@]1(C)O [Erythromycin]
- SEAP activity [U/L] + Erythromycin [10 μg/ml] ([1]; CHO + pBP37 + pWW38 (ET5 + PETR3), 48 hr): 12.1 ± 1.5 U/L
- SEAP activity [U/L] + Erythromycin [10 μg/ml] ([1]; CHO + pBP38 + pWW38 (ET6 + PETR3), 48 hr): 5.8 ± 0.5 U/L
- SEAP activity [U/L] + Erythromycin [10 μg/ml] ([1]; CHO + pBP39 + pWW38 (ET7 + PETR3), 48 hr): 2.3 ± 0.2 U/L
- SEAP activity [U/L] + Erythromycin [10 μg/ml] ([1]; CHO + pWW35 + pWW36 (ET1 + PETR1-SEAP), 48 hrs): 5.3 ± 0.6 U/L
- SEAP activity [U/L] + Erythromycin [10 μg/ml] ([1]; CHO + pWW35 + pWW38 (ET1 + PETR3), 48 hr post transfection): 5.2 ± 0.5 U/L
- SEAP activity [U/L] + Erythromycin [10 μg/ml] ([1]; CHO + pWW35 + pWW39 (ET1 + PETR4-SEAP), 48 hrs): 29.3 ± 0.6 U/L
- SEAP activity [U/L] + Erythromycin [10 μg/ml] ([1]; CHO + pWW42 + pWW38 (ET2 + PETR3), 48 hr): 2.5 ± 0.6 U/L
- SEAP activity [U/L] + Erythromycin [10 μg/ml] ([1]; CHO + pWW64 + pWW38 (ET3 + PETR3), 48 hr): 1.0 ± 0.4 U/L
- GUS expression level in the presence of erythromycin ([2]; pBP6 + pBP18 (PETRp1)): 32.2±3.9 pmoles 4-MU min^−1 mg^−1 protein^−1
- GUS expression level in the presence of erythromycin ([2]; pBP6 + pBP36 (PETRp8)): 44.2±4.6 pmoles 4-MU min^−1 mg^−1 protein^−1
- Influence on expression levels of PSV40 or PhCMV-driven SEAP expression constructs [3]: no influence
